Results taken from the NIST ThermoML archive (doi:10.1016/j.fluid.2012.05.007).

What was measured:
[1] = wn = mass fraction of the nth substance listed; details: for viscosity / mass density: 101 kPa, Liquid; for viscosity: Capillary tube (Ostwald / Ubbelohde) method; for mass density: Pycnometric method; for surface tension liquid-gas: Pendant drop shape
[2] = mn = molality of the nth substance listed, in mol/kg; details: for surface tension liquid-gas: Pendant drop shape; for viscosity / mass density: 101 kPa, Liquid; for viscosity: Capillary tube (Ostwald / Ubbelohde) method; for mass density: Pycnometric method
[3] = 288.15 K

CN(CCO)CCO [N-methyldiethanolamine] + O
[1]
Details | mass density, 288.15 K [kg/m3] | mass density, 313.15 K [kg/m3] | surface tension liquid-gas, 313.15 K [mN/m] | viscosity, 288.15 K [mPa·s] | viscosity, 313.15 K [mPa·s]
w1 = 0.1 | 1007.1 | 1001.1 | 58.71 | 1.711 | 0.905
w1 = 0.2 | 1017.5 | 1008.1 | 54.68 | 2.631 | 1.312

O=C([O-])CC(O)(CC(=O)[O-])C(=O)[O-].[K+].[K+].[K+] [potassium citrate] + O
[2]
Details | mass density, 293.15 K [kg/m3] | mass density, 303.15 K [kg/m3] | mass density, 313.15 K [kg/m3] | mass density, 323.15 K [kg/m3] | surface tension liquid-gas, 293.15 K [mN/m] | viscosity, 293.15 K [mPa·s] | viscosity, 303.15 K [mPa·s] | viscosity, 313.15 K [mPa·s] | viscosity, 323.15 K [mPa·s]
m1 = 0.45 | 1117.7 | 1112.9 | 1107.8 | 1104.3 | 71.49 | 1.342 | 1.05 | 0.845 | 0.695
m1 = 0.83 | 1201.1 | 1197.2 | 1193.4 | 1190.3 | 75.75 | 1.891 | 1.448 | 1.127 | 0.925
m1 = 1.16 | 1294.6 | 1282.5 | 1274.6 | 1263.7 | 79.08 | 2.933 | 2.205 | 1.644 | 1.291
m1 = 1.48 | 1355.7 | 1343.2 | 1331.9 | 1322.8 | 81.1 | 4.989 | 3.56 | 2.597 | 1.986

O [water]
Details | surface tension liquid-gas [mN/m]
[3], Pendant drop shape | 75.16

Details | viscosity [mPa·s]
[3], 101 kPa, Liquid, Capillary tube (Ostwald / Ubbelohde) method | 1.144
